Laboratory results as given in PMC11932207, “Regulating AMPA Receptors with Isoxazole-4-Carboxamide Derivatives: An Electrophysiological Study” (Journal of Xenobiotics, 2025).
Read-outs that look alike come from different tables or passages of the source.

What was measured:
GluA2 = target: T1, GluA2 (Rattus norvegicus, UniProt P19491); assay: Whole-cell patch clamp recordings of homomeric GluA2 AMPA receptor currents and kinetics in transfected HEK293t cells; assay type: cell-based; details: for Amplitude (peak whole-cell current in presence of compound): 16 µM compound co-applied with agonist, HEK293t, −60 mV, pH 7.4, 22 °C; for Amplitude (peak whole-cell current in presence of compound) / A/AI (amplitude ratio, glutamate alone / with compound) / t deact (weighted deactivation time constant) / t des (weighted desensitization time constant) / Amplitude, applying glutamate alone after compound: mean ± SD; for Amplitude (peak whole-cell current in presence of compound) / A/AI (amplitude ratio, glutamate alone / with compound) / Amplitude, applying glutamate alone after compound: n = 10; for A/AI (amplitude ratio, glutamate alone / with compound): 16 µM compound; for t deact (weighted deactivation time constant): 10 mM glutamate for 1 ms; for t deact (weighted deactivation time constant) / t des (weighted desensitization time constant): with compound; for t des (weighted desensitization time constant): 10 mM glutamate for 500 ms; for Amplitude, applying glutamate alone after compound: glutamate alone after the compound; for Effect on deactivation kinetics (τdeac), in words / Effect on desensitization kinetics (τdes), in words: versus glutamate alone, one-way ANOVA
T1 construct: expressed in transfected cells; host or cells: HEK293T (HEK293) cells, transient co-transfection with a separate EGFP vector
Source text: (§1) The AMPA receptor subunits utilized in this study were of the flip isoform. The flip variant of the GluA2 subunit was originally provided by S. F. Heinemann (Salk Institute, La Jolla, CA, USA) in a pBlueScript plasmid. This plasmid was subsequently sub-cloned into a pRK vector to enable expression in HEK293 cells, which were sourced from Sigma, Germany. Additionally, the unedited version of GluA2 (R607Qjj, flip isoform) and enhanced green fluorescent protein (EGFP), both contained in pRK5 vectors, were generously supplied by P. H. Seeburg (Max Planck Institute for Medical Research, Heidelberg, Germany). Chemical-mediated ways induced transfection. GluA2 homomers were expressed into HEK293 cells by the co-transfection of 1 μg GluA2 plasmid with an equal amount of GFP expression vectors (1:1 ratio) into the cells. In addition, co-transfection was conducted for heteromeric GluA2/3 subunits at a ratio of 1:1.2 for optimum expression. For post-transfection experiments, cells were plated in 10% fetal calf serum and antibiotics in DMEM in Petri plates. These cultures were maintained under carefully controlled conditions—37 °C and 5% CO2 within a humidified incubator. The selection of cells for recordings was based on fluorescence intensity. Highly GFP-positive cells were identified and isolated for further analysis, ensuring precise targeting of transfected populations.
(§2) Whole-cell patch clamp recordings were performed on HEK293t cells 36–48 h after transfection. Experiments were conducted at 22 °C, maintaining a holding potential of −60 mV, using an Integrated Patch Amplifier (IPA) from Sutter Instruments (Novato, CA, USA). Data acquisition was managed with SutterPatch Software v. 1.1.1 (Sutter Instruments), employing a sampling rate of 10 kHz and setting the low-pass filter at 2 kHz. […] The external solution contained 150 mM NaCl, 2.8 mM KCl, 0.5 mM MgCl2, 2 mM CaCl2, and 10 mM HEPES, adjusted to a pH of 7.4 using NaOH. The internal pipette solution was composed of 110 mM CsF, 30 mM CsCl, 4 mM NaCl, 0.5 mM CaCl2, 10 mM trypsin-EDTA solution B (0.25%), 0.05% EDTA, and 10 mM HEPES, with the pH adjusted to 7.2 using CsOH.
(§3) A dual-barrel glass pipette (theta tube) was employed for the rapid delivery of glutamate and other solutions. The theta tube was attached to a high-speed piezoelectric solution exchange system (Automate Scientific, Berkeley, CA, USA). To assess the efficiency of solution exchange, open-tip potentials were measured by applying solutions with different ionic compositions after the patch was expelled from the pipette. The time required for a 10–90% change in the solution was generally less than […].
(§4) Data analysis was performed with Igor Pro8.04 software (Wave Metrics, Inc., Portland, OR, USA). AMPA receptor deactivation and desensitization kinetics were measured by applying 10 mM glutamate for 1 ms and 500 ms, respectively. The currents from the AMPA receptor were fitted to a double-exponential model to quantify deactivation and desensitization time constants measured from the double-exponential fits. The weighted tau (τw) is calculated as: τw = (τf × af) + (τs × as), where τf and τs are the time constants of fast and slow exponential components and af and as represent their relative amplitudes.
(§5) Data are presented as the mean ± standard deviation (SD). The total number of HEK293 cells engaged was n = 10. The experimental groups were compared to the wild type using a one-way analysis of variance (ANOVA). Statistical significance was assessed using p values: p < 0.05 (*) indicated significance, p < 0.01 (**) indicated high significance, and p < 0.001 (***) indicated very high significance. The value “ns” indicates non-significance. Concentration–response relationships were modeled using the Hill equation with the resulting combined plots via GraphPad Prism software (version 6.01, GraphPad Software). The data presented are the means from 3–4 experimental replicates. […]

GluA2/3 = target: T2, GluA2/3 (UniProt P19491+P42263); assay: Whole-cell patch clamp recordings of heteromeric GluA2/3 AMPA receptor currents and kinetics in transfected HEK293t cells; assay type: cell-based; details: for Amplitude (peak whole-cell current in presence of compound): 16 µM compound co-applied with agonist, HEK293t, −60 mV, pH 7.4, 22 °C; for Amplitude (peak whole-cell current in presence of compound) / A/AI (amplitude ratio, glutamate alone / with compound) / t deact (weighted deactivation time constant) / t des (weighted desensitization time constant) / Amplitude, applying glutamate alone after compound: mean ± SD; for Amplitude (peak whole-cell current in presence of compound) / A/AI (amplitude ratio, glutamate alone / with compound) / Amplitude, applying glutamate alone after compound: n = 10; for A/AI (amplitude ratio, glutamate alone / with compound): 16 µM compound; for t deact (weighted deactivation time constant): 10 mM glutamate for 1 ms; for t deact (weighted deactivation time constant) / t des (weighted desensitization time constant): with compound; for t des (weighted desensitization time constant): 10 mM glutamate for 500 ms; for Amplitude, applying glutamate alone after compound: glutamate alone after the compound; for Effect on deactivation kinetics (τdeac), in words / Effect on desensitization kinetics (τdes), in words: versus glutamate alone, one-way ANOVA
T2 construct: expressed in transfected cells; host or cells: HEK293T (HEK293) cells, transient co-transfection
Source text: as §1, §2, §3, §4, §5

[1] = concentration–response fit, read-out: Log IC50 (converted)
[2] = inhibition of whole-cell peak current, concentration–response, Hill fit, read-out: IC50

T2 sequence (P19491 22-883 isoform P19491-2 limits assumed): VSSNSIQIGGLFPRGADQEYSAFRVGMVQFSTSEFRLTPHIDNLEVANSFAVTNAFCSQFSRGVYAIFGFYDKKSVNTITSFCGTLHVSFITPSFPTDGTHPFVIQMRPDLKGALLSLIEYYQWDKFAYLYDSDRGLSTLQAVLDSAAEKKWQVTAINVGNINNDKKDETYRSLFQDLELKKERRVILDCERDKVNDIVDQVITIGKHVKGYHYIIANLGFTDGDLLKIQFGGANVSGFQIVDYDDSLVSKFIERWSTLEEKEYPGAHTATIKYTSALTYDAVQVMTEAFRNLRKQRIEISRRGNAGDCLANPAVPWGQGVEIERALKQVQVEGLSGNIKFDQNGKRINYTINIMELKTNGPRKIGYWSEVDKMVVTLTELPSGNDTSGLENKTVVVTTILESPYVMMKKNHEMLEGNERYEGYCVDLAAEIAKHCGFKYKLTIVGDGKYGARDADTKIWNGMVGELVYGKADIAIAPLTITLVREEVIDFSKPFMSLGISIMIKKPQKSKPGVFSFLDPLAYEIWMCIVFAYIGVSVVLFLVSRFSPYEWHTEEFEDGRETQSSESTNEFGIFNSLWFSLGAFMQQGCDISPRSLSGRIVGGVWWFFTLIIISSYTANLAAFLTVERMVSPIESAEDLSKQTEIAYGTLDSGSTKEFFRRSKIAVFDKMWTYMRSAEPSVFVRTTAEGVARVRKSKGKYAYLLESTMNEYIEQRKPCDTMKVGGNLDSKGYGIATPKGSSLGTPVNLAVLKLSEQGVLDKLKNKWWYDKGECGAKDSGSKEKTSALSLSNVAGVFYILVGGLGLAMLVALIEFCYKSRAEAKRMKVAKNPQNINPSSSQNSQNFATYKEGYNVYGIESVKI
T2 sequence (P42263 29-894 isoform P42263-2 limits assumed): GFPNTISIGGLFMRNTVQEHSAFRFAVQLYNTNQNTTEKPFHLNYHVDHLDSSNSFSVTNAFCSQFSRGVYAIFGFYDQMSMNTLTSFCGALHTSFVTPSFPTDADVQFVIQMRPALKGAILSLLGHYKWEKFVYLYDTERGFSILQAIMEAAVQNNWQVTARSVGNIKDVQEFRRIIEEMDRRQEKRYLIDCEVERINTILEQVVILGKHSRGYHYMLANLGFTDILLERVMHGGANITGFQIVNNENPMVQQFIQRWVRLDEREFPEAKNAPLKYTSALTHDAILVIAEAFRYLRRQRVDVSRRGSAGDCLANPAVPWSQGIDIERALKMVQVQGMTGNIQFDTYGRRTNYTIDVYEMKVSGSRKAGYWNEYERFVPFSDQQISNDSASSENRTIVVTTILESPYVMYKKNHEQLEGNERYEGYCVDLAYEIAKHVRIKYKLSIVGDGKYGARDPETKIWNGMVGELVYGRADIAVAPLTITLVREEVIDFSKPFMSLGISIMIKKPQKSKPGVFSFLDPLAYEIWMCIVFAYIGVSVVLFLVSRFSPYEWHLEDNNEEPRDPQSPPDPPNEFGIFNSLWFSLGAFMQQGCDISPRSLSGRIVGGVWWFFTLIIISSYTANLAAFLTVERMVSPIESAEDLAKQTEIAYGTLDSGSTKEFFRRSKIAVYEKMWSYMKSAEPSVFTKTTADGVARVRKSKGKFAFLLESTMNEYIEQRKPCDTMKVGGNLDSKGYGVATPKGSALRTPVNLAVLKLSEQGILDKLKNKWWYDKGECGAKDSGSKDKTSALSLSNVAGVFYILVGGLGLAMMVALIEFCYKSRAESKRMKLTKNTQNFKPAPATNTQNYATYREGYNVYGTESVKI
T1 sequence (P19491 22-883 isoform P19491-2 limits assumed): as the sequence (P19491 22-883 isoform P19491-2 limits assumed) above

SMILES | Amplitude (peak whole-cell current in presence of compound) (GluA2) [pA] | A/AI (amplitude ratio, glutamate alone / with compound) (GluA2) | t deact (weighted deactivation time constant) (GluA2) [ms] | t des (weighted desensitization time constant) (GluA2) [ms] | IC50 (GluA2; [1]) [µM] | Amplitude, applying glutamate alone after compound (GluA2) [pA] | IC50 (GluA2; [2]) [µM] | Effect on deactivation kinetics (τdeac), in words (GluA2) | Effect on desensitization kinetics (τdes), in words (GluA2) | Amplitude (peak whole-cell current in presence of compound) (GluA2/3) [pA] | A/AI (amplitude ratio, glutamate alone / with compound) (GluA2/3) | t deact (weighted deactivation time constant) (GluA2/3) [ms] | t des (weighted desensitization time constant) (GluA2/3) [ms] | IC50 (GluA2/3; [1]) [µM] | Amplitude, applying glutamate alone after compound (GluA2/3) [pA] | IC50 (GluA2/3; [2]) [µM] | Effect on deactivation kinetics (τdeac), in words (GluA2/3) | Effect on desensitization kinetics (τdes), in words (GluA2/3)
COc1ccc(NC(=O)c2c(-c3c(Cl)cccc3Cl)noc2C)c(OC)c1 [CIC-5, 3-(2,6-dichlorophenyl)-N-(2,4-dimethoxyphenyl)-5-methylisoxazole-4-carboxamide] | 228±15 | 5.42±0.07 | 6.1 ± 0.3 | 1.0 ± 0.1 | 5.01 | 1198±99 | 5.03 | statistically significant prolongation of τdeac | accelerated desensitization, although to a lesser degree | 105±7 | 5.37±016 | 6.2 ± 0.3 | 1.0 ± 0.1 | 5.13 | 548±40 | 5.14 | statistically significant prolongation of τdeac | accelerated desensitization, although to a lesser degree
COc1cc(NC(=O)c2c(-c3c(Cl)cccc3Cl)noc2C)cc(OC)c1 [CIC-3, 3-(2,6-dichlorophenyl)-N-(3,5-dimethoxyphenyl)-5-methylisoxazole-4-carboxamide] | 223±15 | 5.60±0.27 | 6.3 ± 0.3 | 0.9 ± 0.1 | 4.79 | 1216±119 | 4.82 | statistically significant prolongation of τdeac | significantly accelerated desensitization | 101±10 | 5.50±0.26 | 6.2 ± 0.3 | 0.9 ± 0.1 | 4.9 | 542±66 | 4.92 | statistically significant prolongation of τdeac | significantly accelerated desensitization
Cc1onc(-c2c(F)cccc2Cl)c1C(=O)Nc1ccc(OC(F)(F)F)cc1 [CIC-11, 3-(2-chloro-6-fluorophenyl)-5-methyl-N-(4-(trifluoromethoxy)phenyl)isoxazole-4-carboxamide] | 359±28 | 3.53±0.15 | 3.0 ± 0.2 | – | 7.08 | 1233±147 | 7.02 | did not elicit statistically significant changes | did not significantly alter desensitization kinetics | 141±29 | 3.46±0.16 | 2.9 ± 0.2 | 2.3 ± 0.1 | 7.08 | 476±112 | 7.13 | did not elicit statistically significant changes | did not significantly alter desensitization kinetics
Cc1onc(-c2c(Cl)cccc2Cl)c1C(=O)Nc1ccc(C(C)(C)C)cc1 [CIC-12, N-(4-(tert-butyl)phenyl)-3-(2,6-dichlorophenyl)-5-methylisoxazole-4-carboxamide] | 417±47 | 3.04±0.13 | 2.7 ± 0.2 | 2.4 ± 0.1 | 7.59 | 1237±195 | 7.54 | did not elicit statistically significant changes | did not significantly alter desensitization kinetics | 162±36 | 3.01±0.14 | 2.8 ± 0.2 | 2.3 ± 0.1 | 7.59 | 478±127 | 7.5 | did not elicit statistically significant changes | did not significantly alter desensitization kinetics
COc1cc(NC(=O)c2c(-c3c(Cl)cccc3Cl)noc2C)cc(OC)c1OC [CIC-4, 3-(2,6-dichlorophenyl)-5-methyl-N-(3,4,5-trimethoxyphenyl)isoxazole-4-carboxamide] | 250±22 | 5.0±0.23 | 5.6 ± 0.3 | 1.1 ± 0.1 | 5.25 | 1220±157 | 5.26 | statistically significant prolongation of τdeac | accelerated desensitization, although to a lesser degree | 110±16 | 4.97±0.23 | 5.7 ± 0.3 | 1.1 ± 0.1 | 5.37 | 531±89 | 5.4 | statistically significant prolongation of τdeac | accelerated desensitization, although to a lesser degree
